Assay results published in patent US20250145665A1, “MACROCYCLIC PEPTIDES USEFUL AS MODULATORS OF TNF ALPHA” (Bristol-Myers Squibb Company, priority 2023, published 2025).
Where two headings read alike, the source gives them in different places. Starred links: 1 amine or outer side, 2 acyl side, 3 side chain; linkers in the order of their positions; H or OH if unused. Positions of bridges follow the written chain, without caps; N, C: chain ends. Non-standard residues stand in square brackets, D forms with d. Residues, ends and D or L forms follow the SMILES beside them. *: point of attachment. Bip(4'-NH) = O=C([C@H](Cc1ccc(-c2ccc(N[*:3])cc2)cc1)N[*:1])[*:2]; Indazole3carbonyl(1-CH2COOH) = O=C(O)Cn1nc(C(=O)*)c2ccccc21; Bip(4'-COOH) = N[C@@H](Cc1ccc(-c2ccc(C(=O)O)cc2)cc1)C(=O)O; Ala(morpholin-4-yl) = N[C@@H](CN1CCOCC1)C(=O)O; Benzoyl(3-OCH2COOH) = O=C(O)COc1cccc(C(=O)*)c1; Phe(3-CONH2) = NC(=O)c1cccc(C[C@H](N)C(=O)O)c1; Bip = N[C@@H](Cc1ccc(-c2ccccc2)cc1)C(=O)O; X3 = O=C(O)c1cccc(Oc2ccccc2C(=O)*)c1; X48 = CC(C)(O)Cn1nc(C(=O)*)c2ccccc21; 2Pal = N[C@@H](Cc1ccccn1)C(=O)O; Cha = N[C@@H](CC1CCCCC1)C(=O)O; X20 = O=C(c1csc(-c2ccncc2)n1)*; Tle = CC(C)(C)[C@H](N)C(=O)O; Aze = O=C(O)[C@@H]1CCN1; Sar = CNCC(=O)O

Biological target: TNFα (Homo sapiens, UniProt P01375)
Sequence (P01375 77-233 limits assumed): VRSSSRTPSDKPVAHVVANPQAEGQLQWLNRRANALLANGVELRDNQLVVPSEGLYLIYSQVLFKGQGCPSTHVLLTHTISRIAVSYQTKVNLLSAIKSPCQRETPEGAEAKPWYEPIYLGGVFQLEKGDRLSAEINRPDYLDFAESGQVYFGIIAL
Assay: TNF-Induced HEK-Blue Assay
Format: cell-based
[1] = HEK-Blue-CD40L cells, NF-kB-driven secreted alkaline phosphatase reporter, TNFα 0.5 ng/ml, 18 h, read-out: TNF induced HEK-Blue assay IC50 value

Structure (SMILES) | IC50 [1] [µM] | IC50 [µM]
CC[C@H](C)[C@@H]1NC(=O)[C@@H]2CCCN2C(=O)[C@H]([C@@H](C)CC)NC(=O)[C@@H](CCCNC(=N)N)NC(=O)[C@H](CC(=O)O)NC(=O)[C@H](Cc2ccccc2)NC(=O)CN(C)C(=O)[C@H](Cc2ccc(-c3ccc(NC(=O)c4cccc(OCC(=O)O)c4)cc3)cc2)NC(=O)[C@H](Cc2ccc(-c3ccc(C(=O)O)cc3)cc2)NC(=O)[C@H](C(C)(C)C)NC(=O)CSC[C@@H](C(=O)NCC(N)=O)NC(=O)[C@H](CC(C)C)NC(=O)[C@H](Cc2cnc[nH]2)NC1=O [Example 352] ({CH2CO}-[Tle][Bip(4'-COOH)][Bip(4'-NH)](Benzoyl(3-OCH2COOH))[Sar]FD[dR]IPIHLCG-NH2; thioether N-13) | < 0.05 | 
CC[C@H](C)[C@@H]1NC(=O)[C@@H]2CCCN2C(=O)[C@H]([C@@H](C)CC)NC(=O)[C@@H](CCCNC(=N)N)NC(=O)[C@H](CC(=O)O)NC(=O)[C@H](Cc2ccccc2)NC(=O)CN(C)C(=O)[C@H](Cc2ccc(-c3ccc(NC(=O)c4csc(-c5ccncc5)n4)cc3)cc2)NC(=O)[C@H](Cc2ccc(-c3ccc(C(=O)O)cc3)cc2)NC(=O)[C@H](C(C)(C)C)NC(=O)CSC[C@@H](C(=O)NCC(N)=O)NC(=O)[C@H](CC(C)C)NC(=O)[C@H](Cc2cnc[nH]2)NC1=O [Example 353] ({CH2CO}-[Tle][Bip(4'-COOH)][Bip(4'-NH)](X20)[Sar]FD[dR]IPIHLCG-NH2; thioether N-13) | < 0.05 | 
CC[C@H](C)[C@@H]1NC(=O)[C@@H](CCCNC(=N)N)NC(=O)[C@H](CC(=O)O)NC(=O)[C@H](Cc2cnc[nH]2)NC(=O)CN(C)C(=O)[C@H](Cc2ccc(-c3ccc(NC(=O)c4ccccc4Oc4cccc(C(=O)O)c4)cc3)cc2)NC(=O)[C@H](Cc2ccc(-c3ccccc3)cc2)NC(=O)[C@H](CC2CCCCC2)NC(=O)CSC[C@@H](C(=O)NCC(N)=O)NC(=O)[C@H](CC(C)C)NC(=O)[C@H](Cc2cnc[nH]2)NC(=O)[C@H](C(C)C)NC(=O)[C@@H]2CCCN2C1=O [Example 354] ({CH2CO}-[Cha][Bip][Bip(4'-NH)](X3)[Sar]HD[dR]IPVHLCG-NH2; thioether N-13) | 0.05 to 0.2 | 
CC(C)C[C@@H]1NC(=O)[C@H](CCCNC(=N)N)NC(=O)[C@H](C(C)C)NC(=O)[C@@H]2CCCN2C(=O)[C@H](C(C)C)NC(=O)[C@@H](CCCNC(=N)N)NC(=O)[C@H](CC(=O)O)NC(=O)[C@@H]2CCCN2C(=O)CN(C)C(=O)[C@H](Cc2ccc(-c3ccc(NC(=O)c4nn(CC(C)(C)O)c5ccccc45)cc3)cc2)NC(=O)[C@H](Cc2ccc(-c3ccccc3)cc2)NC(=O)[C@H](CN2CCOCC2)NC(=O)CSC[C@@H](C(=O)NCC(N)=O)NC1=O [Example 355] ({CH2CO}-[Ala(morpholin-4-yl)][Bip][Bip(4'-NH)](X48)[Sar]PD[dR]VPVRLCG-NH2; thioether N-13) |  | < 0.05
CC[C@H](C)[C@@H]1NC(=O)[C@@H]2CCCN2C(=O)[C@H]([C@@H](C)CC)NC(=O)[C@@H](CCCNC(=N)N)NC(=O)[C@H](CC(=O)O)NC(=O)[C@H](Cc2ccccn2)NC(=O)CN(C)C(=O)[C@H](Cc2ccc(-c3ccc(NC(=O)c4nn(CC(=O)O)c5ccccc45)cc3)cc2)NC(=O)[C@H](Cc2ccc(-c3ccccc3)cc2)NC(=O)[C@H](C(C)(C)C)NC(=O)CSC[C@@H](C(=O)NCC(N)=O)NC(=O)[C@H](CC(C)C)NC(=O)[C@H](Cc2cccc(C(N)=O)c2)NC1=O [Example 356] ({CH2CO}-[Tle][Bip][Bip(4'-NH)](Indazole3carbonyl(1-CH2COOH))[Sar][2Pal]D[dR]IPI[Phe(3-CONH2)]LCG-NH2; thioether N-13) |  | < 0.05
CC[C@H](C)[C@@H]1NC(=O)[C@@H]2CCN2C(=O)[C@H]([C@@H](C)CC)NC(=O)[C@@H](CCCNC(=N)N)NC(=O)[C@H](CC(=O)O)NC(=O)[C@H](Cc2ccc(O)cc2)NC(=O)CN(C)C(=O)[C@H](Cc2ccc(-c3ccc(NC(=O)c4nn(CC(=O)O)c5ccccc45)cc3)cc2)NC(=O)[C@H](Cc2ccc(-c3ccccc3)cc2)NC(=O)[C@H](C(C)(C)C)NC(=O)CSC[C@@H](C(=O)NCC(N)=O)NC(=O)[C@H](CC(C)C)NC(=O)[C@H](Cc2ccc(O)cc2)NC1=O [Example 357] ({CH2CO}-[Tle][Bip][Bip(4'-NH)](Indazole3carbonyl(1-CH2COOH))[Sar]YD[dR]I[Aze]IYLCG-NH2; thioether N-13) |  | 0.05 to 0.2
